According to US8772318B2, “Methods and compositions related to targeting monoacylglycerol lipase” (The Scripps Research Institute, priority 2008, dated 2014):

What was measured:
[1] = test system: human cancer cell lines (C8161, SKOV3, 231MFP, MUM2C, OVCAR3); assay: Cell migration assay (Transwell); type: cell-based; settings: antagonist 1 μM, 4 hr
Method: Cell migration, cell survival, and invasion studies. Migration assays were performed in Transwell chambers (Corning) with 8 μm pore-sized membranes coated with 10 μg/ml collagen for 4 h at 37° C. A total of 24 hr before the start of the migration assay, cancer cell lines were plated at a concentration of 1×10^6 cells per 6 cm dish. At the start of the migration assay, cells were harvested by washing two times with PBS and were then serum starved in serum-free media for 4 hr. Inhibitor, lipid or vehicle (0.1% DMSO) were preincubated with the cells during this 4 h time. Serum-starved cells were trypsinized, spun at 1400×g for 3 min, resuspended, and counted. 50,000 cells were seeded in the upper chamber of the transwells in 200 μl serum-free media (containing inhibitor, lipid or vehicle). Inhibitor, lipid or vehicle was also added to the lower chamber, and cells were allowed to migrate for 5 h (for C8161 and 231MFP cells) or 20 hr (SKOV3, MUM2C and OVCAR3 cells). The filters were then fixed and stained with Diff-Quik (Dade Behring). Cells that had not migrated through the chamber were removed with a cotton ball. The cells that migrated were counted at a magnification of 400×, and 4 fields were independently counted from each migration chamber. An average of cells in 4 fields for one migration chamber represents n=1.

[2] = test system: human cancer cell lines (C8161, SKOV3, 231MFP, MUM2C, OVCAR3); assay: Lipid measurements in cancer cells; type: cell-based; settings: antagonist 1 μM, 4 hr
Method: Pharmacological inhibition of MAGL in cancer cells. Pharmacological inhibition studies were conducted as described previously (Chiang et al., Chem. Biol. 13:1041-1050, 2006). Cancer cells were maintained in RPMI medium 1640 with 10% (v/v) fetal calf serum at 37° C. in a humidified atmosphere of 5% CO2/95% air. At 80% confluency, cells were trypsinized and counted using a hemocytometer, and 1×10^6 cells were plated in 6 cm dishes (subconfluent). […] After incubation for 4 hr, the cells were harvested and analyzed by ABPP or LC-MS.
Lipid measurements in cancer cells. Lipid measurements were conducted similarly to protocols described previously (Chiang et al., 2006; supra). Cancer cells were grown in serum-free media for 4 hrs to minimize the contribution of serum-derived lipids to the cellular profiles. The cells (1×10^6 cells/6 cm dish, 80% confluency) were washed with twice with phosphate buffer saline (PBS), isolated by centrifugation at 1,400×g, and dounce-homogenized in 4 ml of a 2:1:1 mixture of chloroform:methanol:Tris buffer. Samples were homogenized in the presence of the following synthetic standards: C12:0 MAGE (10 nmol), C15:0 FFA (10 nmol). Organic and aqueous layers were separated by centrifugation at 2000×g for 5 min and the organic layer was collected. The aqueous layer was acidified (for metabolites such as LPA) by adding 5% formic acid, followed by the addition of 2 ml chloroform. The mixture was vortexed, and the organic layers were combined, dried down under N2 and dissolved in 100 μl chloroform, of which 30 μl was analyzed by LC-MS.
LC-MS analysis was performed by using an Agilent 1100 LC-MSD SL instrument. […] Mobile phase A was composed of a 95:5 ratio of water:methanol, and mobile phase B consisted of 2-propanol, methanol, and water in a 60:35:5 ratio. Solvent modifiers such as 0.1% formic acid and 0.1% ammonium hydroxide were used to assist ion formation as well as to improve the LC resolution in both positive and negative ionization modes, respectively. The flow rate for each run started at 0.1 ml/min for 5 min, to alleviate backpressure associated with injecting chloroform. The gradient started at 0% B and increased linearly to 100% B over the course of 45 min with a flow rate of 0.4 ml/min, followed by an isocratic gradient of 100% B for 17 min at 0.5 ml/min before equilibrating for 8 min at 0% B with a flow rate of 0.5 ml/min. MS analysis was performed with an electrospray ionization (ESI) source. The capillary voltage was set to 3.0 kV, and the fragmentor voltage was set to 100 V. The drying gas temperature was 350° C., the drying gas flow rate was 10 L/min, and the nebulizer pressure was 35 psi.
Lipidomic analysis was performed in both targeted and untargeted mode by LC-MS analysis. Standard lipid classes were quantitated by targeting using selected ion monitoring (SIM) (except for very high-abundance metabolites which were quantitated by untargeted analysis) and identities of metabolites were confirmed by coelution of metabolites with their respective standards and mass accuracy to within 10 ppm as determined with an accurate mass Agilent 6520 Accurate Mass QTOF-MS-MS. These lipids were quantified by measuring the area under the peak and were normalized to an internal standard (C12:0 MAGE in positive mode or C15:0 FFA in negative mode). […]

[3] = Locomotor activity (hypomotility); type: in vivo, mouse
Method: (§1) Behavioral Studies. […] A total of four groups of mice were used, with a sample size of 14 mice/group. Before injections, the mice were evaluated for baseline responses in the tail immersion test, as well for rectal temperatures. […] For determining hypomotility each mouse was placed in a clear Plexiglas box (42.7×21.0×20.4 cm) for a 10 min assessment period and Anymaze (Stoelting, Wood Dale, Ill.) software was used to determine the percentage of time spent immobile. Subjects were assessed for nociception in the tail immersion assay. Each mouse was placed head first into a small bag fabricated from absorbent under pads (VWR Scientific Products; 4 cm diameter, 11 cm length) with the tail out of the bag. The experimenter gently held the mouse and immersed approximately 1 cm of the tip of the tail into a water bath maintained at 56.0° C. The latency for the animal to withdraw its tail from the water within a 10 s cutoff time was scored. Catalepsy was evaluated using the bar test, in which the front paws of each subject were placed on a rod (0.75 cm diameter) that was elevated 4.5 cm above the surface. Mice that remained motionless with their paws on the bar for 10 s (with the exception of respiratory movements) were scored as cataleptic. […] Rectal temperature was determined by inserting a thermocouple probe 2.0 cm into the rectum and temperature was obtained from a telethermometer.

[4] = Acetic acid abdominal stretching (writhing) assay; type: in vivo, mouse; settings: rimonabant 3 mg/kg before JZL184 16 mg/kg
Method: A second group of naïve subjects (n=10-11 mice/group) were evaluated in the acetic acid stretching assay. […] Acetic acid (0.6%) was injected intraperitoneally in a volume of 10 μl/g body weight 120 min after the second injection. The number of stretches (constriction of abdomen, turning of trunk (twist) and extension of the body and hind limbs) per mouse was counted during a 20-min period after the administration of acetic acid.

[5] = Rectal temperature (hypothermia); type: in vivo, mouse; settings: rimonabant 3 mg/kg before JZL184 16 mg/kg
Method: as §1

[6] = Bar test (catalepsy, hyperreflexia); type: in vivo, mouse; settings: rimonabant 3 mg/kg before JZL184 16 mg/kg
Method: as §1

[7] = Tail immersion assay of thermal pain sensation; type: in vivo, mouse; settings: rimonabant 3 mg/kg before JZL184 16 mg/kg
Method: as §1

Cc1c(C(=O)NN2CCCCC2)nn(-c2ccc(Cl)cc2Cl)c1-c1ccc(Cl)cc1 [rimonabant]
migratory defect in shMAGL cancer cells [1]: not rescued
FFA levels in shControl and shMAGL cancer cells [2]: unchanged
movement, rimonabant on its own ([3]; rimonabant 3 mg/kg): significant reductions in movement
effect of rimonabant on JZL184-induced immobility ([3]; rimonabant 3 mg/kg before JZL184 16 mg/kg): partial blockade
effect of rimonabant pre-treatment on JZL184 analgesia, acetic acid writhing [4]: blocked
effect of rimonabant on JZL184 hypothermic effect [5]: completely blocked
effect of rimonabant on JZL184 hyperreflexia effect [6]: completely blocked
effect of rimonabant pre-treatment on JZL184 analgesia, tail immersion [7]: blocked
